“Also recorded” adds a separate entry of the source.
Columns and labels:
MrgB2 (mouse MrgprB2) = target: T1, MrgB2 (mouse MrgprB2) (Mus musculus, UniProt Q3KNA1); assay: Calcium imaging of cells transfected with the GPCR (Table 1); format: cell-based; settings: for inhibition of SP-induced activation of mouse MrgprB2: FIG. 11: SP 50 μM, NK1 antagonists 50 μM
T1 construct: expressed in transfected cells; host or cells: HeLa cells, pcDNA3.1(-)
T1 sequence (Q3KNA1 1-338): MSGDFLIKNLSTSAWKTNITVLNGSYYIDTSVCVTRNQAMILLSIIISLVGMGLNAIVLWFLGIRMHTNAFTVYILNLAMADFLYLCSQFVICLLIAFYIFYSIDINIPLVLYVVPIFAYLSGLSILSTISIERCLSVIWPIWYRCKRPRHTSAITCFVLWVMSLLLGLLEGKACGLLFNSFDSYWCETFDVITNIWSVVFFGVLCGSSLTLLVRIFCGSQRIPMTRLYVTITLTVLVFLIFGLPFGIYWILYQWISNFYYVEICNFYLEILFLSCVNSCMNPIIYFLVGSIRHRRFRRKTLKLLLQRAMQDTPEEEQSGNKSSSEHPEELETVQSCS
Procedure: human MRGPRX2 was isolated by PCR from human genomic DNA using the forward and reverse primers, […] (SEQ. ID. NO: 3) and […] (SEQ. ID. NO: 4), and cloned into pcDNA3.1(−). The mouse MrgprA1 cDNA expression clone was purchased from ORIGENE Technologies. The mouse MrgprB2 coding sequences were PCR-amplified from mouse genomic DNA using the primer pair, […] (SEQ. ID. NO: 5) and […] (SEQ. ID. NO: 6), and cloned into pcDNA3.1 (−).
10 μg of expression vector (human MRGPRX2, mouse MrgprA1 or NK1) and 10 μl of LIPOFECTAMINE 2000 transfection reagent were diluted into 0.5 ml of DMEM and separately left at room temperature (RT) for 5 min. They were then mixed and incubated at RT for 20 minutes prior to being added to HeLa cells. HeLa cells were grown to confluence, trypsinized and 1×10^6 cells were pelleted in a 15 ml tube by centrifugation at 1000 rpm for 5 minutes. The DMEM-LIPOFECTAMINE 2000-DNA mixture (1 ml) was then added to the cell pellet, suspended and incubated at RT for 5 minutes. 2 ml of complete DMEM with 10% FBS without antibiotics were added to the tube, mixed by inverting the tube, plated into a 96-well glass bottom plate at 50,000 cells/well, and placed in a 37° C. CO2 incubator for 3 hours. HeLa cells transfected with salmon sperm DNA were plated as a control. The medium was changed after 3 hours and left in the incubator. 24 hours after transfection, the medium in the wells was removed and 100 μl of complete DMEM containing 2 μM of FURA-2 were added to each well and left at room temperature in the dark for 1 hr.
Calcium imaging was performed immediately after loading cells with Fura-2, using a ZEISS Axiovert 200M microscope platform equipped with a flipping filter wheel for ratiometric imaging. Axiovision software, version 4.6 was used for calcium image analysis of the cells excited at 340 nm and 380 nm. Agonists were added at 15 seconds after the start of the excitation procedure. Antagonists were added five minutes before imaging with the agonists. Images were taken every 5 seconds, including at zero time, during a 90 second period or longer if required. The software later analyzed all images taken during each excitation period. Ratiometric changes were measured in 10-20 cells in each individual experiment. An average of the fluorescence of the cells in each image was calculated and plotted against time in seconds.

[1] = tested on: mice (itch, scratching bouts); assay: Mouse cheek model, scratching bouts; format: in vivo; settings: for effect on SP-provoked itch (scratching bouts): C57BL/6 (WT) mice, co-injected with SP intradermally into the cheek; for effect on SP-provoked itch (scratching bouts) / provocation of itch (scratching bouts) by the injected substance, WT mice: 10 μl; for provocation of itch (scratching bouts) by the injected substance, WT mice: intradermal injection into the cheek
Procedure: The mouse cheek model was used to evaluate scratching behavior in Mrgpr cluster Δ−/− and NK1−/− mice. Mice used for behavioral studies were 2 to 3 months old, 20-30 g. Mice were habituated for 30 minutes/day for 3 days prior and for 15 minutes on the day of the study. 10 μl of each compound were delivered by a 31G needle to the cheek. The mice were not shaved prior to injections to avoid irritation. All experiments were performed at consistent times during the day (9:00 am to 2:00 pm) and under the same conditions and in groups of at least 7 mice. The mice were videotaped in a soundproof environment minimize distraction. Recordings were scored for the number of scratching bouts that occur over 1 minute intervals during 25 minute observation periods and the investigator was not aware of the group allocation during scoring the study and behavioral analysis. A scratching bout was initiated by lifting of the hind paw to the area of injection, and ended by returning of the hind paw to the floor or to the mouth. […]
For behavioral studies, average numbers of scratching bouts were compared across groups using one-way ANOVA. Pair-wise comparisons were performed using student t test after correcting p values for multiple comparisons using the Bonferroni procedure. For DRG studies and mast cell degranulation studies, unpaired student t-test was used. Differences were considered to be statistically significant for P<0.05. Data analysis was performed using PRISM 6.

[2] = C57BL/6 mice, co-injected intradermally into the cheek, 10 μL, 500 μM of each substance

inhibition of SP-induced activation of mouse MrgprB2 (MrgB2 (mouse MrgprB2)) | activation of mouse MrgprB2 by the substance (in words) (MrgB2 (mouse MrgprB2)) | Molecule | effect on SP-provoked itch (scratching bouts) ([1]; 500 μM of each substance) | provocation of itch (scratching bouts) by the injected substance, WT mice [1] | further results
antagonized; also recorded: antagonists |  | FC(F)(F)c1cc(CO[C@H]2CCCN[C@H]2c2ccccc2)cc(C(F)(F)F)c1 [L-733060] | only minimally effective; also recorded: not effective |  | effect on SP-provoked itch (scratching bouts) ([1]; 500 μM of each substance, listed as L733060): does not significantly decrease and not and lack of significant blockade and does not
antagonized; also recorded: antagonists |  | C[C@@H](O[C@H]1OCCN(Cc2n[nH]c(=O)[nH]2)[C@H]1c1ccc(F)cc1)c1cc(C(F)(F)F)cc(C(F)(F)F)c1 [aprepitant] |  |  | 
 | activates | SLIGRL: tethered hexapeptide ligand of mouse PAR2 (SEQ ID NO: 7) |  | provoke itch | 
 | activates | SP: inflammatory undecapeptide neuropeptide of the tachykinin family, synthesized by GenScript |  | induced itch; also recorded: provoked itch | SP-provoked itch in NK1 knockout mice ([1]; cheek, intradermal, FIG. 5a: 10 μL SP 1 mM, compared to WT): induced itch; also recorded: provoked itch; also recorded: not decreased; SP-provoked itch in Mrgpr cluster knockout mice ([1]; cheek, intradermal, FIG. 5a: 10 μL SP 1 mM, compared to WT, listed as Substance P): does not provoke itch; provocation of itch (scratching bouts) by the injected substance, WT mice ([1]; listed as Substance P): provokes itch

Molecule | inhibition of SP-induced activation of mouse MrgprB2 (MrgB2 (mouse MrgprB2)) | activation of mouse MrgprB2 by the substance (in words) (MrgB2 (mouse MrgprB2)) | effect on SP-provoked itch (scratching bouts) ([1]; 500 μM of each substance) | provocation of itch (scratching bouts) by the injected substance, WT mice [1] | further results
Boc-Gln-D-Trp(Formyl)-Phe benzyl ester trifluoroacetate [QWF] | inhibits; also recorded: antagonized; also recorded: antagonist |  | significantly decreased; also recorded: decreased SP-induced itch to baseline; also recorded: decreased SP-provoked itch to baseline; also recorded: reduced to baseline |  | inhibition of mMrgprB2 activation by compound 48/80 (MrgB2 (mouse MrgprB2)): inhibits; inhibition of mouse MrgprB2 activation by atracurium and ciprofloxacin (MrgB2 (mouse MrgprB2); FIG. 8a): antagonized; also recorded: inhibits; inhibition of mMrgprB2 activation by SLIGRL (MrgB2 (mouse MrgprB2); SLIGRL 10 μM, QWF 10 μM (FIG. 12)): inhibits; effect on SLIGRL-provoked itch (scratching bouts) [1, 2]: blocks; also recorded: reduced to baseline; also recorded: significantly decreased; effect on compound 48/80-provoked itch (scratching bouts) [1, 2]: blocks compound 48/80-induced itch to baseline; also recorded: blocks compound 48/80-provoked itch to baseline; also recorded: reduced to baseline; also recorded: significantly decreased

— patent publication US10426815B2, “Prevention and treatment of itch with an MRGPR antagonist” (THE GENERAL HOSPITAL CORPORATION, priority 2015, dated 2019)
